Measured values reported in patent US20030095958A1, “Inhibitors of bace” (priority 2001, published 2003).

Target: BACE (Homo sapiens, UniProt P56817)
Assay: Ki Determination for the Inhibition of BACE (FS-1 peptide fluorescence cleavage assay)
Type: biochemical
Conditions: apparent Ki; 50 nM BACE, 10 μM FS-1 substrate, 0.1M sodium acetate pH 4.5
Summary of the method: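 Apparent Ki values derive from fitting fluorescence progress data (355 nm excitation, 495 nm emission) of FS-1 peptide cleavage to an integrated competitive tight-binding model. Reactions held 50 nM BACE, 10 μM substrate and inhibitor in 2% DMSO, pH 4.5 acetate buffer, with a 15 min enzyme-compound preincubation at room temperature.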

Sequence of BACE (P56817 46-501): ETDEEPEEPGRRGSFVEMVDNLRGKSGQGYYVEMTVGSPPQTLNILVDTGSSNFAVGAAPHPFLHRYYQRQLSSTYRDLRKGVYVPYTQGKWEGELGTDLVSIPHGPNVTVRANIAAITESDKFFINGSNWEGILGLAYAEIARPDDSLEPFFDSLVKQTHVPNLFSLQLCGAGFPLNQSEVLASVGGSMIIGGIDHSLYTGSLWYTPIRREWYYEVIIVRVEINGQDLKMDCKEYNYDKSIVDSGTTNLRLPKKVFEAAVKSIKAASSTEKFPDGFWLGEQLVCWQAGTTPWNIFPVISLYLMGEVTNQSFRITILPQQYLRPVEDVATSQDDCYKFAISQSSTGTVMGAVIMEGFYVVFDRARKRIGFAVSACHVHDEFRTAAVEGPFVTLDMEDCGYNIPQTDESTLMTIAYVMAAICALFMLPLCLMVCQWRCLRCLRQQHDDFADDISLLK

Row | SMILES | Ki [µM]
1 | O=C1c2ccccc2C(=O)N1CC1CNCCC1c1ccc(COc2ccccc2C(F)(F)F)cc1 (stereo not shown) [Compound 212, 2-{4-[4-(2-Trifluoromethyl-phenoxymethyl)-phenyl]-piperidin-3-ylmethyl}-isoindole-1,3-dione] | 3 to 30
2 | O=C(O)c1cc2ccccc2cc1C(=O)NCC1CNCCC1c1ccc(COc2ccccc2C(F)(F)F)cc1 (stereo not shown) [Compound 213, 3-({4-[4-(2-Trifluoromethyl-phenoxymethyl)-phenyl]-piperidin-3-ylmethyl}-carbamoyl)-naphthalene-2-carboxylic acid] | 3 to 30
3 | O=c1cc(-c2ccccc2)nc(C2CCNCC2)n1Cc1ccccc1C(F)(F)F [Compound 214, 6-Phenyl-2-piperidin-4-yl-3-(2-trifluoromethyl-benzyl)-3H-pyrimidin-4-one] | 3 to 30
4 | O=C(NCc1cccc2ccccc12)C1CNCCC1c1ccc(COc2ccccc2C(F)(F)F)cc1 (stereo not shown) [Compound 215, 4-[4-(2-Trifluoromethyl-phenoxymethyl)-phenyl]-piperidine-3-carboxylic acid (naphthalen-1-ylmethyl)-amide] | 3 to 30
5 | O=C(Nc1cnc(-c2ccc(Cl)c(Cl)c2)nc1N1CCNCC1)c1cccc2ccccc12 [Compound 217, Naphthalene-1-carboxylic acid [2-(3,4-dichloro-phenyl)-4-piperazin-1-yl-pyrimidin-5-yl]-amide] | 3 to 30
6 | O=c1cc(-c2ccccc2)nc(C2CCNCC2)n1Cc1ccc2ccccc2c1 [Compound 218, 3-Naphthalen-2-ylmethyl-6-phenyl-2-piperidin-4-yl-3H-pyrimidin-4-one] | 3 to 30
7 | O=C(NCC1CNCCC1c1ccc(COc2ccccc2C(F)(F)F)cc1)c1ccc2ccccc2c1 (stereo not shown) [Compound 222, Naphthalene-2-carboxylic acid {4-[4-(2-trifluoromethyl-phenoxymethyl)-phenyl]-piperidin-3-ylmethyl}-amide] | 3 to 30
8 | O=C(NCC1CNCCC1c1ccc(COc2ccccc2C(F)(F)F)cc1)Nc1cccc2ccccc12 (stereo not shown) [Compound 224, 1-Naphthalen-1-yl-3-{4-[4-(2-trifluoromethyl-phenoxymethyl)-phenyl]-piperidin-3-ylmethyl}-urea] | 3 to 30
9 | O=C(CNC(=O)C(Cc1ccccc1)NC(=O)OCc1ccccc1)NCC1CNCCC1c1ccc(COc2ccccc2C(F)(F)F)cc1 (stereo not shown) [Compound 225, (2-Phenyl-1-{[({4-[4-(2-trifluoromethyl-phenoxymethyl)-phenyl]-piperidin-3-ylmethyl}-carbamoyl)-methyl]-carbamoyl}-ethyl)-carbamic acid benzyl ester] | 3 to 30
10 | CNCCN(C)c1ccc(-c2ccc(C(F)(F)F)cc2)cc1NCc1ccc2ccccc2c1 [Compound 226, N4-Methyl-N4-(2-methylamino-ethyl)-N3-naphthalen-2-ylmethyl-4′-trifluoromethyl-biphenyl-3,4-diamine] | < 3
11 | O=C(Nc1ccc(-c2ccc(Cl)c(Cl)c2)nc1N1CCNCC1)c1cccc2ccccc12 [Compound 227, Naphthalene-1-carboxylic acid [6-(3,4-dichloro-phenyl)-2-piperazin-1-yl-pyridin-3-yl]-amide] | < 3
12 | O=C(NCC1CNCCC1c1ccc(COc2ccccc2C(F)(F)F)cc1)Oc1ccc2ccccc2c1 (stereo not shown) [Compound 228, {4-[4-(2-Trifluoromethyl-phenoxymethyl)-phenyl]-piperidin-3-ylmethyl}-carbamic acid naphthalen-2-yl ester] | < 3
13 | O=C(NCC1CNCCC1c1ccc(COc2ccccc2C(F)(F)F)cc1)Oc1cccc2ccccc12 (stereo not shown) [Compound 229, {4-[4-(2-Trifluoromethyl-phenoxymethyl)-phenyl]-piperidin-3-ylmethyl}-carbamic acid naphthalen-1-yl ester] | < 3
14 | O=C(NC(Cc1c[nH]c2ccccc12)C(=O)N1CCCC1C(=O)NCC1CNCCC1c1ccc(COc2ccccc2C(F)(F)F)cc1)OCC1c2ccccc2-c2ccccc21 (stereo not shown) [Compound 230, {1-(1H-Indol-3-ylmethyl)-2-oxo-2-[2-{{4-[4-(2-trifluoromethyl-phenoxymethyl)-phenyl]-piperidin-3-ylmethyl}-carbamoyl)-pyrrolidin-1-yl]-ethyl}-carbamic acid 9H-fluoren-9-ylmethyl ester] | < 3
15 | O=C(NCC1CNCCC1c1ccc(COc2ccccc2C(F)(F)F)cc1)Nc1ccc2ccccc2c1 (stereo not shown) [Compound 232, 1-Naphthalen-2-yl-3-{4-[4-(2-trifluoromethyl-phenoxymethyl)-phenyl]-piperidin-3-ylmethyl}-urea] | < 3
16 | FC(F)(F)c1ccccc1OCc1cc(-c2cccc3ccccc23)c(COc2ccccc2C(F)(F)F)cc1C1=CCNCC1 [Compound 301, 4-[4-Naphthalen-1-yl-2,5-bis-(2-trifluoromethyl-phenoxymethyl)-phenyl]-1,2,3,6-tetrahydro-pyridine] | < 3
17 | C1=C(c2cc(COc3ccc4ccccc4c3)c(-c3ccccc3)cc2COc2ccc3ccccc3c2)CCNC1 [Compound 307, 4-[2,5-Bis-(naphthalen-2-yloxymethyl)-biphenyl-4-yl]-1,2,3,6-tetrahydro-pyridine] | < 3
18 | Nc1cc2ccccc2cc1NC(=O)c1ccc(COc2ccccc2C(F)(F)F)cc1C1=CCNCC1 [Compound 311, N-(3-Amino-naphthalen-2-yl)-2-(1,2,3,6-tetrahydro-pyridin-4-yl)-4-(2-trifluoromethyl-phenoxymethyl)-benzamide] | 3 to 30
19 | O=C(OCc1ccc(COc2ccccc2C(F)(F)F)cc1C1=CCNCC1)c1cccc2ccccc12 [Compound 312, Naphthalene-1-carboxylic acid 2-(1,2,3,6-tetrahydro-pyridin-4-yl)-4-(2-trifluoromethyl-phenoxymethyl)-benzyl ester] | < 3
20 | O=C(OCc1ccc(COc2ccccc2C(F)(F)F)cc1C1=CCNCC1)c1ccc2ccccc2c1 [Compound 313, Naphthalene-2-carboxylic acid 2-(1,2,3,6-tetrahydro-pyridin-4-yl)-4-(2-trifluoromethyl-phenoxymethyl)-benzyl ester] | < 3

The next lines start with the values.

Row | Ki [µM] | SMILES
21 | 3 to 30 | O=C(Nc1ccc2ccccc2c1)C1CNCCC1c1ccc(COc2ccccc2C(F)(F)F)cc1 (stereo not shown) [Compound 216, 4-[4-(2-Trifluoromethyl-phenoxymethyl)-phenyl]-piperidine-3-carboxylic acid naphthalen-2-ylamide]
22 | 3 to 30 | O=C(NC1CCc2ccccc2C1)C1CNCCC1c1ccc(COc2ccccc2C(F)(F)F)cc1 (stereo not shown) [Compound 219, 4-[4-(2-Trifluoromethyl-phenoxymethyl)-phenyl]-piperidine-3-carboxylic acid (1,2,3,4-tetrahydro-naphthalen-2-yl)-amide]
23 | 3 to 30 | O=C(C1CNCCC1c1ccc(COc2ccccc2C(F)(F)F)cc1)N(Cc1ccccc1)c1ccc2ccccc2c1 (stereo not shown) [Compound 220, 4-[4-(2-Trifluoromethyl-phenoxymethyl)-phenyl]-piperidine-3-carboxylic acid benzyl-naphthalen-2-yl-amide]
24 | 3 to 30 | O=C(NCC1CNCCC1c1ccc(COc2ccccc2C(F)(F)F)cc1)c1cccc2ccccc12 (stereo not shown) [Compound 221, Naphthalene-1-carboxylic acid {4-[4-(2-trifluoromethyl-phenoxymethyl)-phenyl]-piperidin-3-ylmethyl}-amide]
25 | 3 to 30 | O=C(NC(Cc1ccccc1)C(=O)N1CCCC1C(=O)NCC1CNCCC1c1ccc(COc2ccccc2C(F)(F)F)cc1)OCc1ccccc1 (stereo not shown) [Compound 223, {1-Benzyl-2-oxo-2-[2-({4-[4-(2-trifluoromethyl-phenoxymethyl)-phenyl]-piperidin-3-ylmethyl}-carbamoyl)-pyrrolidin-1-yl]-ethyl}-carbamic acid benzyl ester]
26 | < 3 | O=S(=O)(NCC1CNCCC1c1ccc(COc2ccccc2C(F)(F)F)cc1)c1ccc2ccccc2c1 (stereo not shown) [Compound 231, Naphthalene-2-sulfonic acid {4-[4-(2-trifluoromethyl-phenoxymethyl)-phenyl]-piperidin-3-ylmethyl}-amide]
27 | < 3 | C1=C(c2ccc(-c3ccccc3)cc2)C(COc2ccc3ccccc3c2)CNC1 (stereo not shown) [Compound 302, 4-Biphenyl-4-yl-3-(naphthalen-2-yloxymethyl)-1,2,3,6-tetrahydro-pyridine]
28 | < 3 | FC(F)(F)c1ccccc1OCc1ccc(COc2ccccc2C(F)(F)F)c(C2=CCNCC2)c1 [Compound 303, 4-[2,5-Bis-(2-trifluoromethyl-phenoxymethyl)-phenyl]-1,2,3,6-tetrahydro-pyridine]
29 | < 3 | FC(F)(F)c1ccccc1OCc1cccc(COc2ccccc2C(F)(F)F)c1C1=CCNCC1 [Compound 304, 4-[2,6-Bis-(2-trifluoromethyl-phenoxymethyl)-phenyl]-1,2,3,6-tetrahydro-pyridine]
30 | 3 to 30 | c1ccc(COc2ccc3c(c2)c2c(n3Cc3ccc4ccccc4c3)CNCC2)cc1 [Compound 305, 6-Benzyloxy-9-naphthalen-2-ylmethyl-2,3,4,9-tetrahydro-1H-b-carboline]
31 | < 3 | FC(F)(F)c1ccccc1OCc1cc(-c2ccccc2)c(COc2ccccc2C(F)(F)F)cc1C1=CCNCC1 [Compound 306, 4-[2,5-Bis-(2-trifluoromethyl-phenoxymethyl)-biphenyl-4-yl]-1,2,3,6-tetrahydro-pyridine]
32 | 3 to 30 | O=C(Nc1ccc2ccccc2c1)c1ccc(COc2ccccc2C(F)(F)F)cc1C1=CCNCC1 [Compound 308, N-Naphthalen-2-yl-2-{1,2,3,6-tetrahydro-pyridin-4-yl)-4-(2-trifluoromethyl-phenoxymethyl)-benzamide]
33 | 3 to 30 | COc1cc(NC(=O)c2ccc(COc3ccccc3C(F)(F)F)cc2C2=CCNCC2)cc2ccccc12 [Compound 309, N-(4-Methoxy-naphthalen-2-yl)-2-(1,2,3,6-tetrahydro-pyridin-4-yl)-4-(2-trifluoromethyl-phenoxyraethyl)-benzamide]
34 | 3 to 30 | Nc1cccc2c(NC(=O)c3ccc(COc4ccccc4C(F)(F)F)cc3C3=CCNCC3)cccc12 [Compound 310, N-(5-Amino-naphthalen-1-yl)-2-(1,2,3,6-tetrahydro-pyridin-4-yl)-4-(2-trifluoromethyl-phenoxymethyl)-benzamide]
